The source of these data is ChEMBL document CHEMBL1208770, “Inhibitors of osteoclastogenesis from Lawsonia inermis leaves” (Bioorg Med Chem Lett, 2010).

SMILES strings stand for the structures.

Data set [1] in a line: Inhibition of RANKL-induced osteoclastogenesis in mouse BMDM assessed as decrease in TRAP-positive cells at 10 uM after 5 days by light microscopy. In kind it is functional. The settings on record: 120 h.
A short description of data set [2]: Cytotoxicity against mouse BMDM cells at 10 uM after 72 hrs by MTS assay. The data set is classed as cell-based.

What is called inhibition is the relative decrease from the control value, in per cent. Take `O=c1ccc2ccc(O[C@@H]3O[C@H](CO)[C@@H](O)[C@H](O)[C@H]3O)c(O[C@@H]3O[C@H](CO)[C@@H](O)[C@H](O)[C@H]3O)c2o1` [DAPHNESIDE]: the inhibition at 10 µM in data set [1] turned out to be 20%. Also, the Activity entry in data set [2] is given as “Non-toxic”.

`COc1cc2cc(Oc3ccc4ccc(=O)oc4c3)c(=O)oc2cc1O[C@@H]1O[C@H](CO)[C@@H](O)[C@H](O)[C@H]1O` [DAPHNORIN]: the inhibition at 10 µM in data set [1] worked out at 13%. For the same compound, in data set [2], the Activity entry is on record as “Non-toxic”.
